Reference: patent US9156801B2, “2-substituted oleanolic acid derivative, method preparing for same, and application thereof” (HANGZHOU BENSHENG PHARMACEUTICAL CO., LTD., priority 2011, dated 2015)
Values after ≈ are worked out from the molar mass of the structure shown.

Tests used:
H9 cell line = experiment: leukemia cell growth inhibition, MTT; assay type: cell-based; settings: Homo sapiens; for IC50: H9, 72 h; for inhibition at 16 µg/mL: H9, 16 μg/mL compound, 72 h, read-out: IR (cell proliferation inhibition rate)
How it was run: (§1)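 Proliferation inhibition rates derive from MTT-measured viability, normalised so the compound-free group equals 0%. Exposure lasted 72 hours at 37° C, 5% CO2, starting from 6000 cells/well in serum-supplemented (10% FBS) 1640 medium.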

Jurkat cell line = experiment: leukemia cell growth inhibition, MTT; assay type: cell-based; settings: Homo sapiens, 72 h; for inhibition at 16 µg/mL: 16 μg/mL compound, read-out: IR (cell proliferation inhibition rate)
How it was run: as §1

K562/adr cell line = experiment: leukemia cell growth inhibition, MTT; assay type: cell-based; settings: Homo sapiens, 72 h; for IC50: K562/Adr; for inhibition at 16 µg/mL: K562/adr, 16 μg/mL compound, read-out: IR (cell proliferation inhibition rate)
How it was run: as §1

Kasumi-1 cell line = experiment: leukemia cell growth inhibition, MTT; assay type: cell-based; settings: Homo sapiens; for inhibition at 16 µg/mL: Kasumi-1, 16 μg/mL compound, 72 h, read-out: IR (cell proliferation inhibition rate); for IC50: Kasumi-1, 72 h
How it was run: as §1

NB4 cell line = experiment: leukemia cell growth inhibition, MTT; assay type: cell-based; settings: Homo sapiens, NB-4; for inhibition at 16 µg/mL: NB4, 16 μg/mL compound, 72 h, read-out: IR (cell proliferation inhibition rate); for IC50: NB4, 72 h
How it was run: as §1

RPMI8226 cell line = experiment: multiple myeloma cell growth inhibition, MTT; assay type: cell-based; settings: Homo sapiens, RPMI-8226; for inhibition at 16 µg/mL: RPMI8226, 16 μg/mL compound, 72 h, read-out: IR (cell proliferation inhibition rate); for IC50: RPMI8226, 72 h
How it was run: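 Viability was measured by MTT after a 72 h compound exposure (37° C, 5% CO2) of RPMI8226 myeloma cells seeded at 6000 per well in 1640 medium with 10% fetal bovine serum. Growth inhibition was expressed relative to untreated cells, taken as 0%.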

Hep G2 cell line = experiment: solid tumor cell growth inhibition, MTT; assay type: cell-based, human; settings: Homo sapiens; for inhibition at 16 µg/mL: HepG2, 72 h, Hep G2, 16 μg/mL compound, 72 h, read-out: IR (cell proliferation inhibition rate); for IC50: HepG2, Hep G2, 72 h
How it was run: (§2)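 4000 cells/well, DMEM high glucose + 10% FBS, 37° C/5% CO2; 24 h attach, compound (range of concentrations) 72 h; MTT viability; untreated control = 0% inhibition.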

A549 cell line = experiment: solid tumor cell growth inhibition, MTT; assay type: cell-based; settings: Homo sapiens; for IC50: A549, 72 h; for inhibition at 16 µg/mL: A549, 16 μg/mL compound, 72 h, read-out: IR (cell proliferation inhibition rate)
How it was run: as §2

Becap37 cell line = experiment: solid tumor cell growth inhibition, MTT; assay type: cell-based; settings: Homo sapiens; for inhibition at 16 µg/mL: Becap37, 16 μg/mL compound, 72 h, read-out: IR (cell proliferation inhibition rate); for IC50: Becap37, 72 h
How it was run: as §2

CNE cell line = experiment: solid tumor cell growth inhibition, MTT; assay type: cell-based; settings: Homo sapiens, 72 h; for inhibition at 16 µg/mL: 16 μg/mL compound, read-out: IR (cell proliferation inhibition rate)
How it was run: as §2

CaES-17 cell line = experiment: solid tumor cell growth inhibition, MTT; assay type: cell-based; settings: Homo sapiens, CaEs17; for inhibition at 16 µg/mL: CaES-17, 16 μg/mL compound, 72 h, read-out: IR (cell proliferation inhibition rate); for IC50: CaES-17, 72 h
How it was run: as §2

Hela cell line = experiment: solid tumor cell growth inhibition, MTT; assay type: cell-based; settings: Homo sapiens, 72 h; for IC50: HeLa; for inhibition at 16 µg/mL: Hela, 16 μg/mL compound, read-out: IR (cell proliferation inhibition rate)
How it was run: as §2

Hep-2 cell line = experiment: solid tumor cell growth inhibition, MTT; assay type: cell-based; settings: Homo sapiens; for IC50: HEp-2, 72 h; for inhibition at 16 µg/mL: Hep-2, 16 μg/mL compound, 72 h, read-out: IR (cell proliferation inhibition rate)
How it was run: as §2

MG-63 cell line = experiment: solid tumor cell growth inhibition, MTT; assay type: cell-based; settings: Homo sapiens; for IC50: MG-63, 72 h; for inhibition at 16 µg/mL: MG-63, 16 μg/mL compound, 72 h, read-out: IR (cell proliferation inhibition rate)
How it was run: as §2

MGC 803 cell line = experiment: solid tumor cell growth inhibition, MTT; assay type: cell-based; settings: Homo sapiens; for inhibition at 16 µg/mL: MGC 803, 16 μg/mL compound, 72 h, read-out: IR (cell proliferation inhibition rate); for IC50: MGC 803, 72 h
How it was run: as §2

PANC-1 cell line = experiment: solid tumor cell growth inhibition, MTT; assay type: cell-based; settings: Homo sapiens; for IC50: PANC-1, 72 h; for inhibition at 16 µg/mL: PANC-1, 16 μg/mL compound, 72 h, read-out: IR (cell proliferation inhibition rate)
How it was run: as §2

PC-3 cell line = experiment: solid tumor cell growth inhibition, MTT; assay type: cell-based; settings: Homo sapiens; for IC50: PC-3, 72 h; for inhibition at 16 µg/mL: PC-3, 16 μg/mL compound, 72 h, read-out: IR (cell proliferation inhibition rate)
How it was run: as §2

RKO cell line = experiment: solid tumor cell growth inhibition, MTT; assay type: cell-based; settings: Homo sapiens, 72 h; for inhibition at 16 µg/mL: 16 μg/mL compound, read-out: IR (cell proliferation inhibition rate)
How it was run: as §2

SK-OV-3 cell line = experiment: solid tumor cell growth inhibition, MTT; assay type: cell-based; settings: Homo sapiens; for IC50: SK-OV-3, 72 h; for inhibition at 16 µg/mL: SK-OV-3, 16 μg/mL compound, 72 h, read-out: IR (cell proliferation inhibition rate)
How it was run: as §2

U87 MG cell line = experiment: solid tumor cell growth inhibition, MTT; assay type: cell-based; settings: Homo sapiens, U-87 MG, 72 h; for inhibition at 16 µg/mL: 16 μg/mL compound, read-out: IR (cell proliferation inhibition rate)
How it was run: as §2

IC50 (H9 cell line) [µg/mL]	IC50 (Jurkat cell line) [µg/mL]	IC50 (K562/adr cell line) [µg/mL]	IC50 (Kasumi-1 cell line) [µg/mL]	IC50 (NB4 cell line) [µg/mL]	IC50 (RPMI8226 cell line) [µg/mL]	IC50 (Hep G2 cell line) [µg/mL]	IC50 (A549 cell line) [µg/mL]	IC50 (Becap37 cell line) [µg/mL]	IC50 (CNE cell line) [µg/mL]	SMILES	inhibition at 16 µg/mL (H9 cell line) [%]	inhibition at 16 µg/mL (Jurkat cell line) [%]	inhibition at 16 µg/mL (K562/adr cell line) [%]	inhibition at 16 µg/mL (Kasumi-1 cell line) [%]	inhibition at 16 µg/mL (NB4 cell line) [%]	inhibition at 16 µg/mL (RPMI8226 cell line) [%]	inhibition at 16 µg/mL (Hep G2 cell line) [%]	inhibition at 16 µg/mL (A549 cell line) [%]	inhibition at 16 µg/mL (Becap37 cell line) [%]	inhibition at 16 µg/mL (CNE cell line) [%]	also measured
> 16	> 16	4.12 (≈ 6.9 µM)	> 16	7.32 (≈ 12.3 µM)	12.2 (≈ 20.5 µM)	> 16	> 16	> 16	> 16	CCN(CC)CCNC(=O)C1C[C@@]2(C)C(CC[C@]3(C)C2CC=C2C4CC(C)(C)CC[C@]4(C(=O)O)CC[C@]23C)C(C)(C)C1=O (stereo partly drawn) [BS-OA-106]	44.6	43.2	98.2	43	86.6	68.3	33.6	31.5	27.5	44.3	inhibition at 16 µg/mL (CaES-17 cell line): 10%; IC50 (CaES-17 cell line): > 16 µg/mL; IC50 (Hela cell line): > 16 µg/mL; inhibition at 16 µg/mL (Hela cell line): 34.6%; IC50 (Hep-2 cell line): > 16 µg/mL; inhibition at 16 µg/mL (Hep-2 cell line): 3.8%; IC50 (MG-63 cell line): > 16 µg/mL; inhibition at 16 µg/mL (MG-63 cell line): 4.9%; inhibition at 16 µg/mL (MGC 803 cell line): 13.4%; IC50 (MGC 803 cell line): > 16 µg/mL; IC50 (PANC-1 cell line): > 16 µg/mL; inhibition at 16 µg/mL (PANC-1 cell line): 16.9%; IC50 (PC-3 cell line): > 16 µg/mL; inhibition at 16 µg/mL (PC-3 cell line): -6.4%; inhibition at 16 µg/mL (RKO cell line): 5.3%; IC50 (RKO cell line): > 16 µg/mL; IC50 (SK-OV-3 cell line): > 16 µg/mL; inhibition at 16 µg/mL (SK-OV-3 cell line): -17%; inhibition at 16 µg/mL (U87 MG cell line): 7.2%; IC50 (U87 MG cell line): > 16 µg/mL
15.3 (≈ 25 µM)	12.6 (≈ 20.6 µM)	4.83 (≈ 7.91 µM)	10.2 (≈ 16.6 µM)	6.86 (≈ 11.2 µM)	6.4 (≈ 10.5 µM)	> 16	> 16	> 16	> 16	CCN(CC)CCCNC(=O)C1C[C@@]2(C)C(CC[C@]3(C)C2CC=C2C4CC(C)(C)CC[C@]4(C(=O)O)CC[C@]23C)C(C)(C)C1=O (stereo partly drawn) [BS-OA-108]	57.7	66.5	96.1	74.5	92.4	97.3	42.3	27.5	38.4	42.7	inhibition at 16 µg/mL (CaES-17 cell line): 32%; IC50 (CaES-17 cell line): > 16 µg/mL; IC50 (Hela cell line): > 16 µg/mL; inhibition at 16 µg/mL (Hela cell line): 43%; IC50 (Hep-2 cell line): > 16 µg/mL; inhibition at 16 µg/mL (Hep-2 cell line): 22.7%; IC50 (MG-63 cell line): > 16 µg/mL; inhibition at 16 µg/mL (MG-63 cell line): 47.4%; inhibition at 16 µg/mL (MGC 803 cell line): 13.1%; IC50 (MGC 803 cell line): > 16 µg/mL; IC50 (PANC-1 cell line): > 16 µg/mL; inhibition at 16 µg/mL (PANC-1 cell line): 21.6%; IC50 (PC-3 cell line): > 16 µg/mL; inhibition at 16 µg/mL (PC-3 cell line): -8.2%; inhibition at 16 µg/mL (RKO cell line): 63.2%; IC50 (RKO cell line): 14.3 µg/mL (≈ 23.4 µM); IC50 (SK-OV-3 cell line): > 16 µg/mL; inhibition at 16 µg/mL (SK-OV-3 cell line): -15.6%; inhibition at 16 µg/mL (U87 MG cell line): 18.5%; IC50 (U87 MG cell line): > 16 µg/mL
> 16	> 16	6.8 (≈ 11.7 µM)	> 16	10.8 (≈ 18.5 µM)	6.21 (≈ 10.7 µM)	> 16	> 16	> 16	> 16	CN(C)CCCNC(=O)C1C[C@@]2(C)C(CC[C@]3(C)C2CC=C2C4CC(C)(C)CC[C@]4(C(=O)O)CC[C@]23C)C(C)(C)C1=O (stereo partly drawn) [BS-OA-109]	39.4	32.3	86.2	36.2	76.6	96	32.1	7.5	19.7	36.5	inhibition at 16 µg/mL (CaES-17 cell line): 4.1%; IC50 (CaES-17 cell line): > 16 µg/mL; IC50 (Hela cell line): > 16 µg/mL; inhibition at 16 µg/mL (Hela cell line): 23.6%; IC50 (Hep-2 cell line): > 16 µg/mL; inhibition at 16 µg/mL (Hep-2 cell line): 11.3%; IC50 (MG-63 cell line): > 16 µg/mL; inhibition at 16 µg/mL (MG-63 cell line): 18.9%; inhibition at 16 µg/mL (MGC 803 cell line): 4.9%; IC50 (MGC 803 cell line): > 16 µg/mL; IC50 (PANC-1 cell line): > 16 µg/mL; inhibition at 16 µg/mL (PANC-1 cell line): 12.9%; IC50 (PC-3 cell line): > 16 µg/mL; inhibition at 16 µg/mL (PC-3 cell line): -5.5%; inhibition at 16 µg/mL (RKO cell line): -4.9%; IC50 (RKO cell line): > 16 µg/mL; IC50 (SK-OV-3 cell line): > 16 µg/mL; inhibition at 16 µg/mL (SK-OV-3 cell line): -13.5%; inhibition at 16 µg/mL (U87 MG cell line): -3.8%; IC50 (U87 MG cell line): > 16 µg/mL
